Assay results as given in patent US20210213020A1, “METHODS AND PHARMACEUTICAL COMPOSITIONS FOR TREATING CANCER” (INSERM (INSTITUT NATIONAL DE LA SANTÉ ET DE LA RECHIRCHE …, priority 2018, published 2021).

Columns and labels:
Cancer cells = assay: Cytotoxic properties per se of folinic acid and PLP; type: cell-based; conditions: in concentrations used in the present experiment (folinic acid 20, PLP 160 μmon)
Description: (§1) Cancer cells were exposed in 12 well-cell plates to FUra in various concentrations under four conditions; either as a single agent [FUra]; in combination with [6R,S]-folinic acid (20 μmon) [FUra-FA]; in combination with PLP (160 μmon; Sigma-Aldrich) [FUra-PLP]; and with both agents [6R,S]-folinic acid (20 μmon), and PLP (160 μmon) together [FUra-AF-PLP]. Cells were harvested 72 hours from start of the exposure. Cell viability was measured with the Trypan Blue dye exclusion test in Malassez chambers or by flow cytometry. For the latter method, living cells defined by light double scatter were counted in a BD Accuri C6 flow cytometer (BD Biosciences). Experiments were in duplicate.

[1] = system: L1210 murine lymphocytic leukemia; assay: Cytotoxicity (cell growth inhibition) in vitro, 72 h exposure, L1210; type: cell-based; conditions: Mus musculus, 72 hour-incubation, FA 20 μmol/L and/or PLP 160 μmol/L where present, read-out: IC50 in μmol/L of FUra (95% CI)
Description: (§2) The human colorectal carcinoma cell lines HT29, and HCT116 and the murine L1210 lymphocytic leukemia were thawed from mycoplasma-free frozen stocks and were controlled for contamination. Cells were grown in customized DMEM cell culture medium without any B6-vitamer (Gibco; Life Technologies) supplemented with 10% FBS and antibiotics (streptomycin, 50 μg/ml, and penicillin, 50 U/ml) at 37° C. in an atmosphere containing 5% CO2.
as §1
(§3) Growth inhibition data obtained with FUra as a single agent [FUra], FUra with folinic acid [FUra-FA], FUra with PLP [FUra-PLP], and FUra with both folinic acid and PLP combined [FUra-FA-PLP] were studied according to the Median Effect principle for concentration-effect analysis. […]

[2] = system: HCT116 human colorectal carcinoma cell line; assay: Cytotoxicity (cell growth inhibition) in vitro, 72 h exposure, HCT116; type: cell-based; conditions: HCT-116, 72 hour-incubation, FA 20 μmol/L and/or PLP 160 μmol/L where present, read-out: IC50 in μmol/L of FUra (95% CI)
Description: as §2, §1, §3

[3] = system: HT29 human colorectal carcinoma cell line; assay: Cytotoxicity (cell growth inhibition) in vitro, 72 h exposure, HT29; type: cell-based; conditions: HT-29, 72 hour-incubation, FA 20 μmol/L and/or PLP 160 μmol/L where present, read-out: IC50 in μmol/L of FUra (95% CI)
Description: as §2, §1, §3

[4] = female, Balb/C, mouse, in vivo; for Time by which erythrocyte PLP levels approach baseline concentrations after injection: ip
Description: Blood was collected in heparin. Measurements of B6 vitamers were done by HPLC.28

[5] = mice, one or two injections of PM at 150 or 450 mg/kg
[6] = molecular target: purified rabbit liver SHMT; conditions: read-out: Kd of SHMT for PLP; cited from earlier work
human recombinant SHMT1 = molecular target: T1, human recombinant SHMT1 (Homo sapiens, UniProt P34896); conditions: human recombinant SHMT1 (ref 23); read-out: Kd of SHMT for PLP; cited from earlier work
T1 sequence (P34896 1-483): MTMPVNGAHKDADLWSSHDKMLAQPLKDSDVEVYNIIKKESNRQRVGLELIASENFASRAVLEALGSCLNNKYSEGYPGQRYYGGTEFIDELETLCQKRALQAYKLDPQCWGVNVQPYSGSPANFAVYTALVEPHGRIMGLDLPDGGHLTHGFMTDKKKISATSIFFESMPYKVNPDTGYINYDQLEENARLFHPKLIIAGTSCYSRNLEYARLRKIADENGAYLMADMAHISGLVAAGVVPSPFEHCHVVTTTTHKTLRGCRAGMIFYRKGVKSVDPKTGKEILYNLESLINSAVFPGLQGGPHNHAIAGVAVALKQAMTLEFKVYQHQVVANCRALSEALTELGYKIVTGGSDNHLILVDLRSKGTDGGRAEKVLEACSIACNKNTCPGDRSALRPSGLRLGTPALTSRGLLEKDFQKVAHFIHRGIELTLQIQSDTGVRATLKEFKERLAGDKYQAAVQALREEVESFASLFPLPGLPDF

human recombinant SHMT2 = molecular target: T2, human recombinant SHMT2 (Homo sapiens, UniProt P34897); conditions: human recombinant SHMT2 (ref 23); read-out: Kd of SHMT for PLP; cited from earlier work
T2 sequence (P34897 30-504): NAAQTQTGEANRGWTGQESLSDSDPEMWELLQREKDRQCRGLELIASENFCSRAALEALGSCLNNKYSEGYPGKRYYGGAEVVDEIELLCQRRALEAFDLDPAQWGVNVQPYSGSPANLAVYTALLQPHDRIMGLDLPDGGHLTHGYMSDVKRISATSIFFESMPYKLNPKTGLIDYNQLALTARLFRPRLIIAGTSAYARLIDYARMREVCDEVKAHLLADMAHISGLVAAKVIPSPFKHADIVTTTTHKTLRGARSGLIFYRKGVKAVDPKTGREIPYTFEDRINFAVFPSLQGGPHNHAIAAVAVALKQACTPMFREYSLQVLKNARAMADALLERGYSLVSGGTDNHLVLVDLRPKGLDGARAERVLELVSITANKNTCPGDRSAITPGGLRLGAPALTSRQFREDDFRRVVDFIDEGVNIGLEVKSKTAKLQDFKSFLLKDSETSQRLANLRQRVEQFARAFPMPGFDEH

[7] = molecular target: T3, Human recombinant cytoplasmic cSHMT (Homo sapiens, UniProt P34896); conditions: human recombinant cytoplasmic cSHMT (ref 22); read-out: Kd of SHMT for PLP; cited from earlier work
T3 sequence (P34896 1-483): T1 sequence (P34896 1-483)

Nc1nc2c(c(=O)[nH]1)N(C=O)C(CNc1ccc(C(=O)N[C@@H](CCC(=O)O)C(=O)O)cc1)CN2 (stereo partly shown) [folinic acid, N5-formyl tetra hydro pteroylglutamate, reference compound]
Cytotoxic properties per se (Cancer cells): neither folinic acid nor PLP carry cytotoxic properties per se

O=c1[nH]cc(F)c(=O)[nH]1 [FUra, 5-fluorouracil]
IC50 [1]: 0.47 µmol/L | IC50 [2]: 1.31 µmol/L | IC50 [3]: 1.18 µmol/L

Cc1ncc(CO)c(CN)c1O [PM, pyridoxamine]
Peak erythrocyte PLP concentration, 450 mg/kg versus 150 mg/kg [4]: about 6 fold | Time by which erythrocyte PLP levels approach baseline concentrations after injection [4]: ≤ 12 h | Signs of acute toxicity [5]: No signs of acute toxicity

Cc1ncc(COP(=O)(O)O)c(C=O)c1O [PLP, pyridoxal 5′-phosphate]
Cytotoxic properties per se (Cancer cells): neither folinic acid nor PLP carry cytotoxic properties per se | Kd [6]: 700 nM | Kd (human recombinant SHMT1): 250 nM | Kd (human recombinant SHMT2): 440 nM | Kd [7]: 850 nM

Cc1ncc(CO)c(CO)c1O [PN, pyridoxine, reference compound]
Time by which erythrocyte PLP levels approach baseline concentrations after injection [4]: ≤ 12 h
